Patent US20020045242A1, “Culture medium for culturing Lactobacillus clearans, and method for preserving said strain” (priority 1999, published 2002)

What was measured:
Lactobacillus clearans [1] = assay: Viability of Lactobacillus clearans during lyophilization with preservatives; type: cell-based; details: protein-amino acid-based preservative used alone; viability class
Experimental: (§1) Here, alfalfa juice and clover juice refer to liquids which are made by adding 10-fold water to alfalfa grass or clover grass to make a juice, these being used as alfalfa juice or clover juice, respectively. The amounts in which the preservatives are added are expressed in terms of the weight ratio of the preservative relative to the weight of the viable cells. […] The viability of Lactobacillus clearans is expressed as a percentage, where 100% is the viable cell count immediately after lyophilization. The viability during lyophilization is indicated as concentric circles when the viability is more than 90%, as two concentric circles to one circle when the rate is 80 to 90%, as one circle when the rate is 60 to 80%, as a square when the rate is 40 to 60%, as a triangle when the rate is 20 to 40%, and as an “x” when the rate is less than 20%.
(§2) Here, the amounts in which the preservatives were added are expressed as the weight ratio of the preservative relative to the viable cell weight. […] The viability of Lactobacillus clearans during lyophilization is indicated as two concentric circles when the viability is more than 90%, as two concentric circles to one circle when the rate is 80 to 90%, as one circle when the rate is 60 to 80%, as a square when the rate is 40 to 60%, as a triangle when the rate is 20 to 40%, and as an “x” when the rate is less than 20%.

Lactobacillus clearans [2] = assay: Viability of Lactobacillus clearans during storage with preservatives
Experimental: as §1, §2

Lactobacillus clearans [3] = assay: Changes in titer of Lactobacillus clearans during storage with preservatives; type: cell-based; details: protein-amino acid-based preservative
Experimental: as §1, §2

Lactobacillus clearans [4] = assay: Effect of substances added during subculture on titer of Lactobacillus clearans; type: cell-based; details: added to medium during subculture
Text: The most important amino acids constituting the bacterial cells or enzymes were studied by type for their effects on Lactobacillus clearans.
We looked for substances capable of such enhancement or potentiation and conducted extensive- study.

[5] = protein-amino acid-based preservative, 100% = viable cell count immediately after lyophilization

SMILES | Results during lyophilization (Lactobacillus clearans [1]) | Changes over time during storage, Viability (%) 3 months (Lactobacillus clearans [2]; [5]) | Changes over time during storage, Viability (%) 6 months (Lactobacillus clearans [2]; [5]) | Changes over time during storage, Viability (%) 12 months (Lactobacillus clearans [2]; [5]) | Changes over time during storage, Changes in titer (Lactobacillus clearans [3]) | effect on titer of Lactobacillus clearans (Lactobacillus clearans [4]) | Changes over time during storage, Viability (%) 3 months (Lactobacillus clearans [2]; Lactobacillus clearans) | Changes over time during storage, Viability (%) 6 months (Lactobacillus clearans [2]; Lactobacillus clearans) | Changes over time during storage, Viability (%) 12 months (Lactobacillus clearans [2]; Lactobacillus clearans)
NCCCC[C@H](N)C(=O)O [Lysine] | Δ (a triangle when the rate is 20 to 40%) | 30% | 15% | 5% | ± | extremely effective | – | – | –
NCCS(=O)(=O)O [Taurine] | ◯ (one circle when the rate is 60 to 80%) | – | – | – | + | extremely effective | 70% | 50% | 35%
CSCC[C@H](N)C(=O)O [Methionine] | ◯ (one circle when the rate is 60 to 80%) | – | – | – | + | extremely effective | 65% | 45% | 30%
